Results on four compounds are retold here after patent US10392383B2, “3-(1H-benzo[d]imidazol-2-yl)-1H-pyrazolo[4,3-b]pyridines and therapeutic uses thereof” (Samumed, LLC, priority 2015, dated 2019).

The test system of assay [1] is Wnt activity (Sp5-Luc reporter, Wnt-responsive promoter) in SW480 colon carcinoma cells. Put plainly: Wnt activity screening assay: Sp5-Luc reporter gene assay in SW480 cells. It is filed as cell-based. To be noted: Homo sapiens, overnight incubation, 10-point curve starting from 10 μM. The gist of the method:
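First, hygromycin-selected SW480 Sp5-Luc reporter cells are seeded in medium with 1% fetal bovine serum and exposed overnight to compound (up to 10 μM, 0.1% DMSO). Next, luciferase signal is read by luminescence. Finally, EC50 is fitted, or percent inhibition at 10 μM is reported above 10 μM.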
For orientation: Reporter assays use an easily measured gene product as a stand-in for the process of interest.

For assay [2], the system named is primary human mesenchymal stem cells (hMSCs). Put plainly: Induction of chondrogenesis in human mesenchymal stem cells (nodule staining with Rhodamine B / Nile Red). It is filed as cell-based. Particulars: for Emax: TGF-β3 (10 ng/mL) as positive control, read-out: Max. Activity as % TGF-β3 activity; for EC50: concentration required to induce 50% levels of chondrogenesis vs TGF-β3, read-out: Conc (nM) of 50% TGF-β3 activity. The gist of the method:
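Primary hMSCs (passage 3–6) in incomplete chondrogenic induction medium were exposed 6 days at 37° C to compound (1:3 dilutions, 2700–10 nM in 96-well or 5000–2.2 nM in 384-well; 0.03% DMSO). Nodules stained with Rhodamine B/Nile Red were imaged; area normalized to DMSO wells for EC50, maximal activity and dose at maximum.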

pEC50: −log10 of the molar value.

What is called pEC50 is the negative decadic logarithm of the EC50, by convention in mol/L. Lower therefore signals a high EC50.

Regarding `Fc1cccc(-c2cccc3[nH]c(-c4n[nH]c5ccc(-c6cncc(OC7CCNCC7)c6)nc45)nc23)c1` [Compound 512, 3-(4-(3-Fluorophenyl)-1H-benzo[d]imidazol-2-yl)-5-(5-(piperidin-4-yloxy)pyridin-3-yl)-1H-pyrazolo[4,3-b]pyridine], in assay [1], the pEC50 was 5.67. In assay [2], the Emax worked out at 75% and the EC50 was determined as 7 nM.

Compound `CN(C)CCOc1cncc(-c2ccc3[nH]nc(-c4nc5c(-c6cccc(F)c6)cccc5[nH]4)c3n2)c1` [Compound 515, 2-((5-(3-(4-(3-Fluorophenyl)-1H-benzo[d]imidazol-2-yl)-1H-pyrazolo[4,3-b]pyridin-5-yl)pyridin-3-yl)oxy)-N,N-dimethylethan-1-amine] had a pEC50 in assay [1] of 5.33. Moreover, in assay [2], the Emax stood at 55% and the EC50 turned out to be 2 nM.

In assay [1], `COc1cncc(-c2ccc3[nH]nc(-c4nc5c(-c6cccc(F)c6)cccc5[nH]4)c3n2)c1` [Compound 516, 3-(4-(3-Fluorophenyl)-1H-benzo[d]imidazol-2-yl)-5-(5-methoxypyridin-3-yl)-1H-pyrazolo[4,3-b]pyridine] showed a pEC50 of 6.03. In assay [2], the Emax was 54% and the EC50 is 2 nM.

As to `Oc1cncc(-c2ccc3[nH]nc(-c4nc5c(-c6cccc(F)c6)cccc5[nH]4)c3n2)c1` [Compound 517, 5-(3-(4-(3-Fluorophenyl)-1H-benzo[d]imidazol-2-yl)-1H-pyrazolo[4,3-b]pyridin-5-yl)pyridin-3-ol], the pEC50 in assay [1] was 5.18. In assay [2], the Emax amounted to 45%.
